Experimental findings from patent US9220262B2, “Use of acylcyclohexanedione carboxylic acid or salts thereof in combination with acylcyclohexanedione carboxylic acid esters for improving the development of gramineous plants” (BASF SE, priority 2008, dated 2015) are described below.

Common to all, as to assay type: in vivo
Test [1] deals with Winter wheat of the "Bussard" cultivar. Briefly: Degree of stem lodging in winter wheat ready for harvest, field test. The conditions noted are these: crops ready for harvest; for Degree of lodging: % lodged area x intensity (0-100) / 100. The protocol:
Winter wheat of the “Bussard” cultivar was cultivated under field conditions. To “provoke” significant lodging, the supply of the nutrient element nitrogen was deliberately selected too high. The remaining growing conditions corresponded to customary practice. The plants were treated with the inventive active ingredient combination at the BBCH 31/32 development stage (1- to 2-node stage) as a foliar application with a liquid volume of 200 I/ha. Prohexadione-Ca (“ProCa”) (50 g/ha) was used as Regalis (BASF) and trinexapac-ethyl (“TriEt”) (75 g/ha) as Moddus (Syngenta). The shoot length of the plants was measured at various times from the treatment until they were ready for harvest. The following results were obtained (data in centimeters):
For crops ready for harvest from the test, the degree of stem lodging was determined. This value is the product of the percentage area in which the wheat plants are no longer upright with the intensity of lodging (0=plants are upright/100=plants lie flat on the ground) divided by 100. The values obtained here likewise lead to the conclusion of a synergistic interaction of the active ingredients involved: […]

Test [2] shares this test system. Briefly: Reduction of shoot growth in winter wheat, field test. The protocol:
Winter wheat of the “Bussard” cultivar was cultivated under field conditions. To “provoke” significant lodging, the supply of the nutrient element nitrogen was deliberately selected too high. The remaining growing conditions corresponded to customary practice. The plants were treated with the inventive active ingredient combination at the BBCH 31/32 development stage (1- to 2-node stage) as a foliar application with a liquid volume of 200 I/ha. Prohexadione-Ca (“ProCa”) (50 g/ha) was used as Regalis (BASF) and trinexapac-ethyl (“TriEt”) (75 g/ha) as Moddus (Syngenta). The shoot length of the plants was measured at various times from the treatment until they were ready for harvest. The following results were obtained (data in centimeters): […]

Test [3] relates to Wheat plants of the "Cubus" cultivar. Briefly: Reduction of shoot growth in winter wheat, greenhouse test. The protocol: Wheat plants of the “Cubus” cultivar were cultivated in pots of diameter 12 cm on a customary growing substrate. The plants were treated at BBCH development stage 11/12 (1-2 leaves unfolded) at a shoot length of 16 cm as a foliar application with a liquid volume of 750 I/ha. Both prohexadione-Ca (“ProCa”) and trinexapac-ethyl (“TriEt”) were used as technical grade active ingredients. To prepare an applicable spray liquor, the adjuvant LI-700 (Loveland Products, Inc., Greeley, Colo., USA) was added in a concentration of 0.1%. The shoot length of the plants was measured at different times after the treatment. The following results were obtained (data in centimeters): […]

[4] abbreviates: 25 g/ha foliar, 0 days after treatment.
Where [5] appears, read: 25 g/ha foliar, 5 days after treatment.
The mark [6] stands for this setting: 25 g/ha foliar, 8 days after treatment.
The mark [7] stands for this setting: 25 g/ha foliar, 11 days after treatment.
[8] abbreviates: 50 g/ha foliar, 0 days after treatment.
The mark [9] stands for this setting: 50 g/ha foliar, 5 days after treatment.
Setting [10] is: 50 g/ha foliar, 8 days after treatment.
[11] abbreviates: 50 g/ha foliar, 11 days after treatment.
Where [12] appears, read: 100 g/ha foliar, 0 days after treatment.
Setting [13] is: 100 g/ha foliar, 5 days after treatment.
Setting [14] is: 100 g/ha foliar, 8 days after treatment.
Setting [15] is: 100 g/ha foliar, 11 days after treatment.

Consider `CCC(=O)C1=C([O-])CC(C(=O)[O-])CC1=O.[Ca+2]` (stereo not drawn) [ProCa, prohexadione-Ca], for which, in test [1] (50 g/ha), the “Improvement over control [%] (degree of lodging)” value was 11%. In test [1] (50 g/ha), the “Improvement over control absolute (degree of lodging)” value came to 10. Moreover, in test [1] (50 g/ha), the Degree of lodging came to 81. In addition, the shoot length in test [2] (50 g/ha (as Regalis) foliar, 0 days after treatment) is given as 43.0 cm; in test [2] (50 g/ha (as Regalis) foliar, 7 days after treatment), 50.0 cm; in test [2] (50 g/ha (as Regalis) foliar, 21 days after treatment), 69.3 cm; in test [2] (50 g/ha (as Regalis) foliar, 30 days after treatment), 89.0 cm; in test [2] (50 g/ha (as Regalis) foliar, 37 days after treatment), 99.5 cm; in test [2] (50 g/ha (as Regalis) foliar, 49 days after treatment) it was 119.8 cm. Moreover, the shoot length was found to be 120.0 cm in test [2] (50 g/ha (as Regalis) foliar, 63 days after treatment); 16 cm in test [3] (setting [4]); 23.0 cm in test [3] (setting [5]); 26.6 cm in test [3] (setting [6]); 31.1 cm in test [3] (setting [7]); 16 cm in test [3] (setting [8]). The shoot length is given as 23.0 cm in test [3] (setting [9]); 26.3 cm in test [3] (setting [10]); 29.5 cm in test [3] (setting [11]); 16 cm in test [3] (setting [12]); 22.5 cm in test [3] (setting [13]); 24.0 cm in test [3] (setting [14]). The shoot length in test [3] (setting [15]) worked out at 25.8 cm.

On to `CCOC(=O)C1CC(=O)C(=C(O)C2CC2)C(=O)C1` (stereo not drawn) [TriEt, trinexapac-ethyl], for which, in test [1] (75 g/ha), the Degree of lodging was 93. Further, the shoot length in test [2] (75 g/ha (as Moddus) foliar, 0 days after treatment) came out at 43.0 cm; in test [2] (75 g/ha (as Moddus) foliar, 7 days after treatment) it was 54.5 cm; in test [2] (75 g/ha (as Moddus) foliar, 21 days after treatment), 76.3 cm; in test [2] (75 g/ha (as Moddus) foliar, 30 days after treatment) it was 97.8 cm; in test [2] (75 g/ha (as Moddus) foliar, 37 days after treatment), 102.8 cm; in test [2] (75 g/ha (as Moddus) foliar, 49 days after treatment) it was 119.8 cm. Also, the shoot length in test [2] (75 g/ha (as Moddus) foliar, 63 days after treatment) is 121.0 cm; in test [3] (setting [4]), 16 cm; in test [3] (setting [5]) it was 24.6 cm; in test [3] (setting [6]), 27.9 cm; in test [3] (setting [7]) it was 32.9 cm; in test [3] (setting [8]), 16 cm. The shoot length was determined as 24.4 cm in test [3] (setting [9]); 26.5 cm in test [3] (setting [10]); 31.8 cm in test [3] (setting [11]); 16 cm in test [3] (setting [12]); 22.3 cm in test [3] (setting [13]); 23.6 cm in test [3] (setting [14]). This molecule also registered a shoot length in test [3] (setting [15]) of 28.5 cm.
